Test results: US12050224B2, “Compounds useful as near-infrared fluorescent probes selectively binding to tau aggregates and method of preparing the same” (KOREA INSTITUTE OF SCIENCE AND TECHNOLOGY, priority 2020, dated 2024)

Tests used:
[1] = molecular target: bovine serum albumin (BSA) (Bos taurus, UniProt P02769); assay: Measurement of non-specific binding using BSA; conditions: compound 10 μM, 0.25 mg/ml BSA, 30 min incubation
Description: In order to exclude non-specific binding of the compound to serum, reactivity between the compound and bovine serum albumin (BSA) was further tested. 25 μl of a 10 μM compound was incubated along with 25 μl of 0.25 mg/ml BSA for 30 minutes, and then the fluorescence spectrum reaction was measured using a spectrophotometer. The BSA response was conducted to identify non-selective binding to other proteins in the blood when applied to patients as an imaging agent.

[2] = Measurement of absorbance and fluorescence of synthesized compound in ethanol; format: physicochemical; conditions: 10 μM in ethanol; for λem: Maximum emission wavelength / λex: Maximum excitation wavelength: average of three measurements; for Stokes shift: difference between excitation and emission
Description: In order to investigate the optical properties of the newly synthesized compound in the present invention, the absorbance was measured using a V-730 UV-visible spectrophotometer manufactured by JASCO, and fluorescence was measured using a FlexStation 3 multi-mode microplate reader manufactured by Molecular Devices. Absorbance and fluorescence were measured three times at a concentration of 10 μM in ethanol, and the average thereof is shown in Table 1 below. At this time, T807 (AV-1451) as a Tau positron-emission-tomography (PET) tracer and Thioflavin S, which are commercially available to detect tau production in vivo, were used as a control group.

[3] = molecular target: T1, amyloid beta aggregates (Abeta40) (Homo sapiens, UniProt P05067); assay: In vitro binding assay (fluorescence labeling ability) to amyloid beta aggregates; conditions: compound 10 μM, PBS, 30 min incubation
T1 construct: the synthesized Abeta40 (Amyloid Beta 40) peptide was dissolved in PBS; host or cells: synthetic peptide
Description: (§1) Experimental Example 2-1: Tau and amyloid beta aggregation induction For amyloid aggregation induction, the synthesized Abeta40 (Amyloid Beta 40) peptide was dissolved in PBS at a concentration of 0.5 mg/ml to induce aggregation for 7 days at 37° C. and 200 rpm with shaking. To induce aggregation of tau proteins, aggregation of Tau-K18 protein (0.5 mg/ml in PBS) purified and isolated from E. coli with heparin (0.1 mg/ml) and DTT (100 μM) was induced at 37° C. and 200 rpm for 7 days under shaking conditions. […] At this time, thioflavin S (Th S), which is known to bind to beta-sheet structures such as tau and amyloid aggregates, was used as a control group (Ex: 430 nm, Em: 480-610 nm). Specifically, in order to determine the labeling ability of newly synthesized compounds to tau aggregate proteins, a 25 μl dilution of a 10 μM labeling substance in PBS and 25 id of a 0.125 mg/ml tau or amyloid pre-aggregate or aggregate diluted in PBS were each incubated for 30 minutes, and then a fluorescence spectrum reaction was measured using a spectrophotometer. Selectivity analysis for tau aggregates and amyloid beta aggregates of the novel synthetic compounds of the present invention was performed as described above, and the resulting in vitro fluorescence changes are summarized in Table 2 and FIG. 1 below.

[4] = molecular target: T2, tau aggregates (Tau-K18 protein) (Homo sapiens, UniProt P10636); assay: In vitro binding assay (fluorescence labeling ability) to tau aggregates; conditions: for SIaβ: selectivity index = fluorescence intensity of probe bound to Tau aggregate / bound to Aβ aggregate / SItaumono: selectivity index, tau aggregate versus tau monomer / FItau: fold increase = fluorescence intensity of probe bound to tau aggregate / probe (free): compound 10 μM; for FItau: fold increase = fluorescence intensity of probe bound to tau aggregate / probe (free): PBS, 30 min incubation
T2 construct: aggregation of Tau-K18 protein (0.5 mg/ml in PBS) purified and isolated from E. coli; made in house; host or cells: E. coli
Description: as §1

T1 sequence (P05067 672-711 limits assumed): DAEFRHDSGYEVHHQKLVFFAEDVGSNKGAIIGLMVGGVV
Chain of bovine serum albumin (BSA) (P02769 25-607): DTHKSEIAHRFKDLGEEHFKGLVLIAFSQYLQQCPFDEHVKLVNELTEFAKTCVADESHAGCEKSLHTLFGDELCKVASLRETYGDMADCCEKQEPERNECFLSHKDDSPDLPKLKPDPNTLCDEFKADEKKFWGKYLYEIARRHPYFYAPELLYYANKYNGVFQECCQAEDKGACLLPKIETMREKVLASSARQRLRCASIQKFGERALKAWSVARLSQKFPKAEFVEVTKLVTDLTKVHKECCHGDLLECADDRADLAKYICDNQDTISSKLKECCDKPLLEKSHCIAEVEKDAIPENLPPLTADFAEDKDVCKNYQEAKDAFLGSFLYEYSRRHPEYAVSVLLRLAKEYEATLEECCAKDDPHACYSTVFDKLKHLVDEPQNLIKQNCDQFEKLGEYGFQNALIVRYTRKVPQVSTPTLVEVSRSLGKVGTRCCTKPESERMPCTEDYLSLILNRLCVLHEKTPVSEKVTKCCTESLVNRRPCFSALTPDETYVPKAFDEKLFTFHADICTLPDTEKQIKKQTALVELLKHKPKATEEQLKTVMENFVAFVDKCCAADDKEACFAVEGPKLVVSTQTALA
T2 sequence (P10636 561-685 limits assumed): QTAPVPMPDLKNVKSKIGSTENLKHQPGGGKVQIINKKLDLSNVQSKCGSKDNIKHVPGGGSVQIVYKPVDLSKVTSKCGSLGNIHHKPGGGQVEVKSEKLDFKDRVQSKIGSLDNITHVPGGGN

| SMILES | FIBSA: fold increase = fluorescence intensity of probe bound to BSA / probe (free) [1] | λem: Maximum emission wavelength [2] [nm] | λex: Maximum excitation wavelength [2] [nm] | Stokes shift [2] [nm] | FIAβ: fold increase = fluorescence intensity of probe bound to Aβ aggregate / probe (free) [3] | SIaβ: selectivity index = fluorescence intensity of probe bound to Tau aggregate / bound to Aβ aggregate [4] | SItaumono: selectivity index, tau aggregate versus tau monomer [4] | FItau: fold increase = fluorescence intensity of probe bound to tau aggregate / probe (free) [4] | selectivity for tau aggregates over amyloid aggregates ([4]; in vitro screening as fluorescent probes) [times] |
| --- | --- | --- | --- | --- | --- | --- | --- | --- | --- |
| Nc1ccc(C(=O)/C=C/c2ccc3cc(O)ccc3n2)cc1 [Compound 13c, (E)-1-(4-aminophenyl)-3-(6-hydroxyquinolin-2-yl)prop-2-en-1-one] | 1.72 | 570 | 378 | 192 | 1.67 | 2.8 | 3.2 | 4.63 | – |
| COc1ccc2nc(/C=C/C(=O)c3ccc(Br)cc3)ccc2c1 [Compound 13e, (E)-1-(4-bromophenyl)-3-(6-methoxyquinolin-2-yl)prop-2-en-1-one] | 1.39 | 415 | 314 | 101 | 1.37 | 3.8 | 2.2 | 5.18 | 3.8 |
| COc1ccc2nc(/C=C/C=C/c3ccc(N(C)C)nc3)ccc2c1 [Compound 15d, 5-((1E,3E)-4-(6-methoxyquinolin-2-yl)buta-1,3-dien-1-yl)-N,N-dimethylpyridin-2-amine] | 1.05 | 520 | 402 | 118 | 1.25 | 1.1 | 1.3 | 1.33 | – |
| COc1ccc2nc(/C=C/C=C/c3ccc(F)cc3F)ccc2c1 [Compound 15h, 6-methoxy-2-((1E,3E)-4-(2.4-difluorophenyl)buta-1,3-dien-1-yl)quinolone] | 0.70 | 415 | 360 | 55 | 1.56 | 1.5 | 2.8 | 2.35 | – |
| COc1ccc2nc(/C=C/c3ccc(C(F)(F)F)cc3)ccc2c1 [Compound 14a, (E)-6-methoxy-2-(4-(trifluoromethyl)styryl)quinolone] | 0.60 | 415 | 359 | 56 | 0.54 | 1.9 | 2.0 | 1.01 | – |
| CNc1ccc(/C=C/C=C/C(=O)c2ccc3cc(OC)ccc3n2)cc1 [Compound 16b, (2E,4E)-1-(6-methoxyquinolin-2-yl)-5-(4-(methylamino)phenyl)penta-2,4-dien-1-one] | 56.71 | 714 | 475 | 239 | 9.45 | 1.0 | 2.1 | 9.22 | – |
